The values that follow come from patent US20240261266A1, “BENZIMIDAZOLE COMPOUND OR SALT THEREOF, CANINE FILARIASIS CONTROL AGENT CONTAINING SAME, AND METHOD OF USE THEREOF” (NIHON NOHYAKU CO., LTD., priority 2021, published 2024).

Where only a bound is given, the exact number is not on record here.

The test system of this test is Canine filariae (Dirofilaria immitis) L-3 stage larvae. Briefly: Impact evaluation test on growth of canine filariae (L3 to L4). The conditions noted are these: 168 h, read-out: growth inhibition rate (growth from L3-stage larvae to L4-stage larvae).

In general, inhibition refers to the percentage by which the read-out fell short of the control. In the case of `CCCCC#Cc1ccc(-c2nc3c(Br)cc(Br)cc3[nH]2)o1` [Compound 1-11, 4,6-dibromo-2-(5-(1-hexynyl)-2-furyl)benzimidazole], the inhibition at 50 ppm was no less than 50%.
